Here are results for one molecule from patent publication US20260041652A1, “SYSTEM AND METHOD FOR PREVENTING ALOPECIA” (Follea International, priority 2024, published 2026).

This assay deals with scalp hair follicles. Nature of the assay: Epilation force measured with trichotillometer vs placebo (Example 5). It is filed as in vivo, human. The following applies: 10% solution vs placebo, average of 10 subjects; listed as 10% PE.

SMILES strings stand for the structures.

Protocol: To evaluate the effect of a topically applied α1-AR agonist on the force required to pluck hairs from the scalp, a hand-held spring dynamometer, or “trichotillometer” was used (8). The trichotillometer records the maximum force threshold, in grams, required to pluck a single hair from the scalp; the performance and statistical variance of the instrument have been reported previously (8-10). Force measurements were performed using the trichotillometer on 10 subjects. The frontal area of scalp was divided into two 8×10 cm2 areas. On the right side 0.5 mL of a placebo vehicle was applied. […] After 45 minutes, ten hairs were plucked from each of the target areas with the trichotillometer.

Regarding `CNC[C@H](O)c1cccc(O)c1` [phenylephrine], the “average increase of epilation force threshold” value was 172%.
